The target of assay [1] is T1, Dipeptidyl peptidase 3 (Homo sapiens, UniProt Q9NY33).
T1 sequence (Q9NY33 whole entry): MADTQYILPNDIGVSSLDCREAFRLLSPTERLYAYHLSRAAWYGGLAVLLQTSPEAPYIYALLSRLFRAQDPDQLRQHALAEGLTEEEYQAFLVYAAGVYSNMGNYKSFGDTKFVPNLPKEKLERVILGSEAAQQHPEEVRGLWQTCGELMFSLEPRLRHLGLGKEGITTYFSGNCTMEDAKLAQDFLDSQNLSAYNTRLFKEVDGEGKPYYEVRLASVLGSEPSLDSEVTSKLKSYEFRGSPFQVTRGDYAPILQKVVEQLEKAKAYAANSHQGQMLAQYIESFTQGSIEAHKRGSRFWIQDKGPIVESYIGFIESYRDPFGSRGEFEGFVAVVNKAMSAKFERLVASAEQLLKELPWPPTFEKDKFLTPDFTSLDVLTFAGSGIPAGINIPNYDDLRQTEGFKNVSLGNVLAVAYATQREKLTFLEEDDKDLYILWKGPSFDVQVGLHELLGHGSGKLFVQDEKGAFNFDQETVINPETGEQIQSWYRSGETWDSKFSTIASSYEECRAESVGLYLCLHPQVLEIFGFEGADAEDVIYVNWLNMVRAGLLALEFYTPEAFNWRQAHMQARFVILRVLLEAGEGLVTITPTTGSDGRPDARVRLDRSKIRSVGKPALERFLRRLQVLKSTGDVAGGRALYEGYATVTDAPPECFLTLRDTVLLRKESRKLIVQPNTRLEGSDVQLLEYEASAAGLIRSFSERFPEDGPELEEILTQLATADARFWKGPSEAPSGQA
The assay is described as follows: Competitive inhibition of DPP3 (unknown origin) using Arg-Arg-2-naphthylamide as substrate.

For assay [2], the target named is T1, Dipeptidyl peptidase 3. The assay is described as follows: Inhibition of DPP3 (unknown origin).
The target of assay [3] is T1, Dipeptidyl peptidase 3. Put plainly: Inhibition of human DPP3 using Arg-Arg-2-naphthylamide as substrate assessed as reduction in release of 2-naphthylamine preincubated for 10 mins followed by substrate addition and measured for 30 mins by fluorescence based analysis.

What is called IC50 is the concentration at which inhibition is half-maximal. Turning to `CC1C(=O)c2cc(O)c3c(c2C(O)C1O)C(=O)c1cccc(O)c1-3` (stereo not drawn), the IC50 on Dipeptidyl peptidase 3 [1] amounted to 74 µM.
At Dipeptidyl peptidase 3 [2], `CC(C)[C@H](N)C(=O)N[C@@H](C(C)C)[C@H](O)N[C@@H](Cc1ccccc1)C(=O)N1CCC[C@H]1C(=O)N[C@@H](Cc1c[nH]c2ccccc12)C(=O)O` came in with an IC50 of 8.5 µM.
For the compound `CC(C)[C@H](NC(=O)[C@@H](N)C(C)(C)C)/C(F)=C/[C@@H](Cc1ccccc1)C(=O)N1CCCC[C@H]1C(=O)N[C@@H](Cc1c[nH]c2ccccc12)C(=O)O`, at Dipeptidyl peptidase 3 [3], the IC50 worked out at 21 µM.
Compound H-VVFPW-OH returned an IC50 against Dipeptidyl peptidase 3 [2] of 0.13 µM.
`Cc1cc(=O)c2c(cc(O)c3c4c(O)cccc4c(=O)c32)c1=O` displayed an IC50 at Dipeptidyl peptidase 3 [1] of 1.44 µM.
For the compound `CC(C)[C@H](N)C(=O)N[C@H](/C(F)=N/[C@@H](Cc1ccccc1)C(=O)N1CCC[C@H]1C(=O)N[C@@H](Cc1c[nH]c2ccccc12)C(=O)O)C(C)C`, the IC50 on Dipeptidyl peptidase 3 [3] was 4.6 µM.
Consider `CC(C)[C@H](NC(=O)[C@@H](N)C(C)(C)C)/C(F)=C/[C@@H](Cc1ccccc1)C(=O)N1CCC[C@H]1C(=O)N[C@@H](Cc1c[nH]c2ccccc12)C(=O)O`, for which the half-inhibitory concentration (IC50) on Dipeptidyl peptidase 3 [3] worked out at 22.5 µM.
On the same count and under the same terms, in the case of `CC(C)[C@H](N)C(=O)N[C@H](/C(F)=C/[C@@H](Cc1ccccc1)C(=O)N1CCCC[C@H]1C(=O)N[C@@H](Cc1c[nH]c2ccccc12)C(=O)O)C(C)C` it was 7.7 µM.

(Values after ChEMBL document CHEMBL5126579, “Design and synthesis of efficient fluororethylene-peptidomimetic inhibitors of dipeptidyl peptidase III (DPP3)” (Bioorg Med Chem, 2022).)
